The values that follow come from patent publication US4217355A, “Amide therapeutic agents” (Pfizer Inc., priority 1978, dated 1980).

Molecules are shown by their SMILES.

The subject of one experiment is murine thymus cells. Nature of the experiment: lymphocyte stimulation assay (LSA), in vitro lymphocyte proliferation of murine thymus cells cultured in the presence of Concanavalin A. Format: cell-based, male C57B1/6 mice. Conditions: in vitro; Con A present; 48 hours at 37° C.; score at drug level with maximum activity. The source says:
On the other hand, the activity of the compounds of the present invention, as immunoregulator agents, is based on a study of their ability to stimulate, in vitro, the lymphocyte proliferation of murine thymus cells cultured in the presence of Concanavalin A (Con A) by employing the general evaluation procedure of V. J. Merluzzi et al., as described in the Journal of Clinical and Experimental Immunology, Vol. 22, p. 486 (1975).
486 (1975). The cells were derived from male C57B1/6 mice of from 6-8 weeks age, purchased from the Jackson Laboratories of Bar Harbor, Maine and the Con A was obtained from Sigma Chemicals of St. Louis, Missouri. Each cell culture (consisting of 0.10 ml. thymus cells stock solution, 0.05 ml. of Con A stock solution and 0.05 ml. of drug solution) was performed in quadruplicate and cellular proliferation was measured, after 48 hours of incubation at 37° C., by pulsing each culture with ^3 H-thymidine (0.01 ml. of specific activity 1.9 C/mM, obtained from Schwarz-Mann, Inc. of Orangeburg, N.Y.) and then determining the incorporation of ^3 H-thymidine into cellular desoxyribonucleic acid (DNA) by an assessment of radioactivity using a liquid scintillation counter.

Experiment [1] has as its system carrageenin-induced edema in the hind paw. Nature of the experiment: carrageenin-induced rat food edema test (inhibition of edema formation in the hind paw). Format: in vivo, male albino rats. How it is done:
A. Winter et al., Proc. Soc. Exp. Biol. Med., Vol. 111, p.
A. Winter et al., as earlier reported in the Proceedings of the Society of Experimental Biology and Medicine, Vol. 111, p. 544 (1962). In this test, anti-inflammatory activity is determined as the percent inhibition of edema formation in the hind paw of male albino rats (weighing 150-190 g.) in response to a sub-plantar injection of carrageenin. The carrageenin is injected as a 1% aqueous suspension (0.05 ml.) one hour after oral administration of the drug, which is normally given in the form of an aqueous solution. Edema formation is then assessed three hours after the carrageenin injection by measuring the volume of the injected paw initially as well as at the three-hour mark. The increase in volume three hours after carrageenin injection constitutes the individual response.
The following N-(2-thiazolyl)amides were tested for anti-inflammatory activity in rats, using the standard carrageen-ininduced rat food edema test, according to the procedure essentially described by C. A. Winter et al., as first reported in the Proceedings of the Society for Experimental Biology and Medicine, Vol. 111, p. 544 (1962). […]
In general terms: In the carrageenan paw model, swelling and tenderness develop within hours.

Experiment [2] concerns inflammation in adrenalectomized animals. The experiment in a line: anti-inflammatory activity in adrenalectomized animals. Type of experiment: in vivo, rats. The text has this:
As previously indicated, the N-(2-thiazolyl)amide compounds of the present invention are all readily adapted to therapeutic use as anti-inflammatory agents and as immunoregulators, particularly in view of their ability to reduce the swelling and relieve the pain caused by arthritic and other inflammatory disorders that are normally associated with such basic ailments as rheumatoid arthritis and the like. […] A. Winter et al., Proc. Soc. Exp. Biol. Med., Vol. 111, p.

As for `O=C(CNCc1ccccc1)Nc1nccs1` [X=H, R1=H, R2=benzyl, N-(2-thiazolyl)-α-benzylaminoacetamide], the “LSA Activity” value in the experiment with murine thymus cells is recorded as “+++ (those having an activity greater than levamisole (27,000±1,000 cpm) were scored as +++)”. Further, the “% Inhibition of edema formation (swelling)” value in experiment [1] (rat, oral, 1.0 mg./kg.) is given as 35%. For the same molecule, the “% Inhibition of edema formation” value in experiment [1] (rat, oral, 33 mg./kg., three hours after carrageenin injection) is reported as 52%. In experiment [1] (rats, tested orally), the “oral dose levels at which the non-steroidal therapeutic effect is exhibited” value lay in the range of 0.33 to 33 mg/kg. The “anti-inflammatory activity in adrenalectomized animals” value in experiment [2] was “retaining its extremely potent anti-inflammatory activity in adrenalectomized animals to a significantly high degree”.
